Results: paper doi:10.1101/2024.01.31.578122v1 (biorxiv, 2024)

What was measured:
[1] = target: TRIM21 PRYSPRY (PRYSPRY domain of TRIM21) (Homo sapiens, UniProt P19474); assay: microscale thermophoresis, RED-NHS labelled protein; format: binding
[2] = target: TRIM21 PRYSPRY (PRYSPRY domain of TRIM21) (Homo sapiens, UniProt P19474, D355A); assay: isothermal titration calorimetry; format: binding
TRIM21 PRYSPRY (PRYSPRY domain of TRIM21) (Homo sapiens, UniProt P19474, D355A), sequence (P19474 287-465 D355A): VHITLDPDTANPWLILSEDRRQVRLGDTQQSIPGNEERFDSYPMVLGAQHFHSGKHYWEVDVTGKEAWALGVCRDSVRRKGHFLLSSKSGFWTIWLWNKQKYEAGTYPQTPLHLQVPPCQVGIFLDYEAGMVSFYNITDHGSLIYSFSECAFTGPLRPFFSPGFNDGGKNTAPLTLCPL

TRIM21 PRYSPRY (PRYSPRY domain of TRIM21) (Homo sapiens, UniProt P19474), sequence (P19474 287-465): as the sequence (P19474 287-465 D355A) above, with A69D counted along it

Row | Kd [1] [µM] | Kd [2] [µM] | Structure (SMILES)
1 | 44.6 | 5.66 | CC(=O)c1ccc2c(c1)N(CCCN(C)C)c1ccccc1S2 [acepromazine]
2 | – | 9.11 | C[C@@H](O)c1ccc2c(c1)N(CCCN(C)C)c1ccccc1S2 [(R)-ACE-OH]
3 | 237 | 17.9 | C[C@H](O)c1ccc2c(c1)N(CCCN(C)C)c1ccccc1S2 [(S)-hydroxyl-acepromazine]
